These results are taken from US4405642A, “Method for treatment or prophylaxis of cardiac disorders” (American Hospital Supply Corporation, priority 1980, dated 1983).

Where a name gives a salt, the structure may show the parent alone.

Assay [1] concerns the target T1, β-adrenergic receptors (guinea pig right atria) (Cavia porcellus, UniProt H0W3H1).
T1 construct: Atria were allowed to beat spontaneously under a loading tension; from tissue; host or cells: guinea pig right atria (isolated, spontaneously beating)
The assay can be described thus: β-blocking activity in vitro, guinea pig right atria (rate response to isoproterenol). It is filed as cell-based. To be noted: vs isoproterenol, guinea pig right atria, 60 minute incubation, 37° C.; for Kb: read-out: pA2 Atria (converted). The method, then: (§1) Each tissue was suspended between a fixed glass rod and a Statham® Universal Transducer connected to a Beckman® recorder. Atria were allowed to beat spontaneously under a loading tension of approximately 0.5 gm. Instrinsic depressant or stimulant activity was determined for each compound by progressively increasing concentrations in the tissue baths at 60-minute intervals. Tissues were not washed between increments. The maximum concentration showing little or no cardiodepressant activity was chosen for blockade experiments. Changes in rate in response to isoproterenol were measured in the absence and presence of test compounds. Spiral strips of guinea pig trachea were suspended under 5 gm resting tension and incubated with phentolamine, tropolone and cocaine. Active tension was generated by addition of carbachol (3.0×10^-7 M) and decreases in tension in response to isoproterenol were quantitated. Cumulative concentration-response curves were produced with isoproterenol both before and after 60 minute incubation of test compounds with atria and trachea. The blocking potency of test compounds was estimated by computing pA2 values (-log […]) by the method of Furchgott, The Pharmacological Differentiation of Adrenergic Receptors, Ann. […] The degree of cardioselectivity was estimated from the ratio, KB trachea/KB atria (10^(pA.sbsp.2^atria-pA.sbsp.2^trachea)). A ratio greater than one indicates cardioselectivity. Test drugs were dissolved in distilled water and added to the bath (30 ml) in a volume of 10 or 100 μl.

In assay [2] the target is T2, β-adrenergic receptors (guinea pig tracheal strips) (Cavia porcellus, UniProt Q8K4Z4).
T2 construct: from tissue; host or cells: guinea pig trachea (isolated spiral strips)
The assay is described as follows: β-blocking activity in vitro, guinea pig tracheal strips (tension response to isoproterenol). Particulars: vs isoproterenol, 60 minute incubation, 37° C., read-out: pA2 Trachea (converted). In kind it is cell-based. The procedure: as §1

Assay [3] relates to heart rate response to isoproterenol. The assay is described as follows: Duration of beta-blockade in vivo, anesthetized dogs, 3-hour infusion. Particulars: dog; for % I (Percent inhibition of heart rate response to isoproterenol): end of 3-hour infusion, bolus isoproterenol 0.5 μg/kg; for 80% Recovery Time: after termination of 3-hour infusion. The method, then:
(§2) The duration of beta-blockade was determined in vivo using pentobarbitalanesthetized dogs instrumented for measurement of heart rate using a Beckman® cardiotachometer triggered electronically by a phasic aortic blood pressure signal. Both vagus nerves were severed in the cervical region and the animals were mechanically ventilated. Two experimental designs were used. The first employed a 40-minute infusion of test compound and the second used a 3-hour infusion of test compound. In the 40-minute model, isoproterenol was infused into a foreleg vein at the rate of 0.5 μg/kg/min to induce a beta-receptor mediated tachycardia. Various doses of test compound where then infused into a femoral vein over a period of 40 minutes. This infusion was then terminated and recovery from blockade was quantitated. […] This cumulative dose is expressed as mg/kg and is an indication of potency. The time period required for 80% recovery of heart rate for each dose of test drug was also measured to quantitate duration of action. […] Test compounds were dissolved in 0.9% NaCl and infused at a rate of 0.05 ml/kg/min or less. In the 3-hour infusion model, bolus doses of isoproterenol (0.5 μg/kg) were used to assess the degree of beta-blockade and recovery from beta-blockade after termination of the infusion. The doses were spaced at 10-minute intervals and were given before, during and following the infusion of test compounds. The infusion rate was adjusted so that at the end of the 3-hour infusion period the degree of isoproterenol inhibition averaged about 50% of control.

Assay [4] shares this test system. The assay is described as follows: Duration of beta-blockade in vivo, anesthetized dogs, 40-minute infusion. Particulars: for Recovery Times 50%: 50% recovery of heart rate after 40-minute infusion; for Recovery Times 50% / Recovery Times 80% / Recovery Times 100%: normalized to 50% inhibition, dog; for Recovery Times 80%: 80% recovery of heart rate after 40-minute infusion; for Recovery Times 100%: 100% recovery of heart rate after 40-minute infusion; for ED50: Canis lupus familiaris, iv, 40 min, read-out: Potency. Details: species or system dog. The method, then: as §2

T2 sequence (Q8K4Z4 whole entry): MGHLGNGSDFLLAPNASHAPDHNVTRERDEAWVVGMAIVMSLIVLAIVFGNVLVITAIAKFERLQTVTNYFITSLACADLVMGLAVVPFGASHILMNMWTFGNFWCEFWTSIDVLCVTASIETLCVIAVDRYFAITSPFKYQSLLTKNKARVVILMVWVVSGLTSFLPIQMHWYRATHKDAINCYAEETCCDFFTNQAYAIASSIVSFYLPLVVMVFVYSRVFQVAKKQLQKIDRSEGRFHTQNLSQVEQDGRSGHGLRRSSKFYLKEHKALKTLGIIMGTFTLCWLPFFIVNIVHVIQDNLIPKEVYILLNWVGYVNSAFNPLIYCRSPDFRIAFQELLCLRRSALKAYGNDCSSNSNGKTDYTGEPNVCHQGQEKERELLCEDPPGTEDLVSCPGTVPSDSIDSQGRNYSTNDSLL
T1 sequence (H0W3H1 1-470): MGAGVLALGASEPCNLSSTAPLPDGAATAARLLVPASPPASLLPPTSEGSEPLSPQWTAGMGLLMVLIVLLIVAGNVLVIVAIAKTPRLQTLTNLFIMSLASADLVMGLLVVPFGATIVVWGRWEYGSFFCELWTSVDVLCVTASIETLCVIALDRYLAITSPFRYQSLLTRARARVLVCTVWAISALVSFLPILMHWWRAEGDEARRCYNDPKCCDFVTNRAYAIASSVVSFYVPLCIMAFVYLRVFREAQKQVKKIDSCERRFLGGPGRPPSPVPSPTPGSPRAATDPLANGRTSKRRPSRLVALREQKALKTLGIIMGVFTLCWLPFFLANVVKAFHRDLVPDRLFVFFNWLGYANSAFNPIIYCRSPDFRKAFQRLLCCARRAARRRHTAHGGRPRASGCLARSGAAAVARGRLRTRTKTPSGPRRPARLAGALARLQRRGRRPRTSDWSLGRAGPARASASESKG

As to `COc1ccc(CCNCC(O)COC(=O)c2ccc(CO)cc2)cc1OC` (centres unmarked) [LXVI, [2-Hydroxy-3-[(N3,4-dimethoxyphenethyl)amino]propyl 4-(hydroxymethyl) benzoate oxalate], the Kb in assay [1] was over 3160 nM.
Turning to `CC(C)NCC(O)COC(=O)c1cccc(N)c1` (centres unmarked) [Example LV], the Kb in assay [1] was 398 nM; in assay [2], 158 nM.
Take `CC(C)NCC(O)COC(=O)c1ccc(O)cc1` (centres unmarked) [LVI]: the “% I (Percent inhibition of heart rate response to isoproterenol)” value in assay [3] amounted to 79 ± 9%. In addition, the Kb was 158 nM in assay [1] and 63.1 nM in assay [2].
Turning to `CC(C)NCC(O)COC(=O)c1ccc(OCc2ccccc2)cc1` (centres unmarked) [XXX], the Kb in assay [1] was over 1000 nM.
Turning to `CC(C)NCC(O)COC(=O)c1ccc(N)cc1` (centres unmarked) [Example LIV, [2-Hydroxy-3-(isopropylamino)]propyl 4-aminobenzoate hydrochloride], in assay [3], the “80% Recovery Time” value is over 60 min and the “% I (Percent inhibition of heart rate response to isoproterenol)” value is recorded as 80 ± 4%.
For `CC(C)NCC(O)COC(=O)c1ccc(CO)cc1` (centres unmarked) [Example LXIV, [2-Hydroxy-3(isopropylamino)]propyl 4-(hydroxymethyl)benzoate hydrochloride], in assay [2], the Kb is 501 nM.
With `COc1ccc(CCNCC(O)C(=O)Oc2ccccc2C)cc1OC` (centres unmarked) [II], in assay [1], the Kb is 1260 nM.
Turning to `CC(C)NCC(O)COc1cccc2ccccc12` (centres unmarked) [Propranolol, reference compound], the “80% Recovery Time” value in assay [3] is recorded as over 60 min. In assay [4], the “Recovery Times 50%” value came out at 23 ± 4 min, the “Recovery Times 80%” value turned out to be 42 ± 8 min and the “Recovery Times 100%” value is 58 ± 9 min.
Consider `CCCNCC(O)COC(=O)c1ccc(N)cc1` (centres unmarked) [LXV, [2-Hydroxy-3-(n-propyl)amino]propyl 4-aminobenzoate oxalate], for which the Kb in assay [1] was 1260 nM.
Regarding `Cc1cccc(C(=O)OCC(O)CNC(C)C)c1` (centres unmarked) [Example VIII], in assay [4], the “Recovery Times 50%” value was determined as 7 ± 1 min, the “Recovery Times 80%” value worked out at 14 ± 3 min, the “Recovery Times 100%” value is 20 ± 4 min and the ED50 amounted to 1.83 ± 0.11 mg/kg. The Kb in assay [1] was 158 nM. Besides, in assay [2], the Kb was 50.1 nM.
Consider `COc1ccccc1COC(=O)C(O)CNCCc1ccc(OC)c(OC)c1` (centres unmarked) [Example V, 2-Methoxybenzyl 3-[[N-(3,4-Dimethoxyphenethyl)]amino]-2-hydroxypropionate], for which the Potency entry in assay [4] (cumulative dose over 40-minute infusion, normalized to 50% inhibition of isoproterenol response, dog i.v.) is “low”. For the same molecule, in assay [1], the “pA2 Atria” value is “inactive”. The Kb in assay [2] was 10000 nM.
As for `CCCOc1ccccc1C(=O)OCC(O)CNC(C)C` (centres unmarked) [XXVII], in assay [3], the “80% Recovery Time” value is over 60 min and the “% I (Percent inhibition of heart rate response to isoproterenol)” value worked out at 69%. In assay [1], the Kb is 251 nM.
For the molecule `COc1ccc(CCNCC(O)COC(=O)c2cccc(C)c2)cc1OC` (centres unmarked) [Example IX], in assay [4], the “Recovery Times 50%” value was 6 ± 1 min, the “Recovery Times 80%” value was 10 ± 1 min, the “Recovery Times 100%” value worked out at 16 ± 2 min and the ED50 came to 4.7 ± 1.7 mg/kg.
With `CC(C)NCC(O)COC(=O)c1ccc2ccccc2c1` (centres unmarked) [XVI], the Kb in assay [1] was 398 nM; in assay [2], 251 nM.
As to `CC(C)NCC(O)COC(=O)c1cccc2ccccc12` (centres unmarked) [XV], in assay [3], the “80% Recovery Time” value was over 60 min and the “% I (Percent inhibition of heart rate response to isoproterenol)” value stood at 54%. In assay [4], the “Recovery Times 50%” value worked out at 18 min, the “Recovery Times 80%” value was 22 min, the “Recovery Times 100%” value worked out at 38 min and the ED50 is 1.5 mg/kg. The Kb in assay [1] was 251 nM. Moreover, in assay [2], the Kb was 100 nM.
As for `CC(C)NCC(O)COC(=O)c1cccc([N+](=O)[O-])c1` (centres unmarked) [Example XXI], the Kb in assay [1] is 158 nM; in assay [2] it was 63.1 nM.
Consider `CCC(C)(C)NCC(O)COC(=O)c1ccccc1F` (centres unmarked) [LIII], for which the Kb in assay [1] is 158 nM.
Take `COc1ccc(CCNCC(O)COC(=O)c2ccccc2C)cc1OC` (centres unmarked) [XXXI]: in assay [3], the “80% Recovery Time” value is over 60 min and the “% I (Percent inhibition of heart rate response to isoproterenol)” value is listed as 85%.
